Test results as given in paper PMC5978884, “Dissection of the antimicrobial and hemolytic activity of Cap18: Generation of Cap18 derivatives with enhanced specificity” (PLoS ONE, 2018).
Where no end group is shown, it is not given here.

Assays:
[1] = system: Aeromonas salmonicida ATCC33658; assay: microbe, parasite or virus in culture; type: cell-based; settings: ATCC33658
Experimental: (§1) All strains were grown in Mueller-Hinton-II medium, except L. monocytogenes which was grown in BHI medium and L. lactis which was grown in MRS medium. Incubation took place aerobically at 37°C, except for Y. ruckeri and A. salmonicida, which were grown aerobically at RT (20 °C), and L. lactis grown aerobically at 30°C. All plates were incubated for 16–21 hours.
(§2) The minimum inhibitory concentrations (MICs) of the AMPs were measured in 96-well microtiter plates according the Clinical and Laboratory Standards Institute (CLSI, formerly National Committee for Clinical Laboratory Standards [NCCLS]). Briefly, liquid Mueller-Hinton-II medium containing increasing concentrations of AMPs is inoculated with a defined number of cells (approx. 10^5 CFUs/ml) in 96-well microtiter plates (polypropylene), whereas each plate also includes a positive growth control and a negative control (sterile control). The range of peptide concentrations analyzed was 0.125–64 μg/ml for the high purity peptides and 0.06–32 μg/ml for peptides of the variant library. After incubation, the MIC is determined by the lowest concentration showing no visible growth. All plates were incubated for 16–20 hours. The MIC of the reference antibiotics was determined by the use of Sensititre panels (Trek Diagnostic Systems Ltd, East Grinstead, UK).

[2] = system: Yersinia ruckeri 392/2003; assay: microbe, parasite or virus in culture; type: cell-based
Experimental: as §1, §2

[3] = system: Salmonella enterica serovar Typhimurium LT2; assay: microbe, parasite or virus in culture; type: cell-based; settings: LT2
Experimental: as §1, §2

[4] = system: Pseudomonas aeruginosa ATCC27853; type: cell-based
Experimental: as §1, §2

[5] = system: Escherichia coli ATCC25922; type: cell-based
Experimental: as §1, §2

[6] = system: Enterococcus faecalis ATCC29212; type: cell-based
Experimental: as §1, §2

[7] = system: Lactococcus lactis IL1403; type: cell-based
Experimental: as §1, §2

[8] = system: Listeria monocytogenes N22-2; type: cell-based
Experimental: as §1, §2

[9] = system: all the tested bacterial species including Gram-positive and Gram-negative bacteria
Experimental: as §2, with “The range of peptide concentrations analyzed was 0.125–64 μg/ml for the high purity peptides and 0.06–32 μg/ml for peptides of the variant library.” left out
To identify Cap18 variant peptides with changed species specificity, the antimicrobial screening data of Y. ruckeri, A. salmonicida, S. Typhimurium and L. lactis was compared.
In addition, three Cap18 derivatives harboring either a I13F, I13M or G26T substitution were ordered as positive controls. […] The antimicrobial activity of the highly pure peptides was determined by measuring the MIC value of each derivative against the four test strains Y. ruckeri, A. salmonicida, S.Typhimurium and L. lactis (Table 6). […] In addition to the additional screening strains, a wider range of relevant pathogens including Gram-positive and Gram-negative bacteria was analyzed for targeted antimicrobial activity.

MIC A. salmonicida [1] [µg/mL]	MIC A. salmonicida ATCC33658 [1] [µg/mL]	MIC Y. ruckeri [2] [µg/mL]	MIC Y. ruckeri 392/2003 [2] [µg/mL]	MIC S. Typhimurium [3] [µg/mL]	MIC S. Typhimurium LT2 [3] [µg/mL]	MIC P. aeruginosa ATCC27853 [4] [µg/mL]	MIC E. coli ATCC25922 [5] [µg/mL]	MIC E. faecalis ATCC29212 [6] [µg/mL]	MIC L. lactis IL1403 [7] [µg/mL]	MIC L. monocytogenes N22-2 [8] [µg/mL]	MIC against all the tested bacterial species [9] [µg/mL]	MIC L. lactis [7] [µg/mL]	Sequence
4	16	4	16	4	16	16 to 32	16	16	≥64	8 to 16			GLRKRLRKFRNKIKELLKKIGQKIQGLLPKLAPRTDY [Peptide 13]
8	8	16	16	4	8	8 to 16	32 to 64	≥64	32	16 to 32			GLRKRLRKFRNKIKEKLKKIGQKSQGLLPKLAPRTDY [Peptide 29]
	2 to 4		4		4	16 to 32	4 to 8	32	2	4 to 8			GLRKRLRKFRNKIKEDLKKIGQKIQGLLPKLAPRTDY [Peptide 10]
2	2 to 4		32	4	4	16	8 to 16	≥64	32	32 to 64			GLRKRLRKFRNKIKEKLPKIGQKIQGLLPKLAPRTDY [Peptide 19]
4	16	8	8 to 16	8	16	16	16	16	≥64	8 to 16			GLRKRLRKFRNKIKEYLKKIGQKIQGLLPKLAPRTDY [Peptide 15]
16	16	16	32	4	8	8	≥64	≥64	32	32			GLRKRLRKFRNKIKEKLKKIGQKIQGPLPKLAPRTDY [Peptide 31]
4	8	2	8 to 16	8	8 to 16	16 to 32	8	32	≥64	16			GLRKRLRKFRNKIKECLKKIGQKIQGLLPKLAPRTDY [Peptide 9]
					32					32	≥ 32		GLRKRLRKFRNKIKEKLKKIGQKNQGLLPKLAPRTDY [Peptide 28]
8	16	16	32	4	8	16	≥64	≥64	32	32			GLRKRLRKFRNKIKEKLKKEGQKIQGLLPKLAPRTDY [Peptide 20]
4	8 to 16	4	8 to 16	4	16	16 to 32	16	32	≥64	16			GLRKRLRKFRNKIKEMLKKIGQKIQGLLPKLAPRTDY [Peptide 14]
4	8 to 16	4	16	4	16	16	16	16	≥64	8 to 16			GLRKRLRKFRNKIKEILKKIGQKIQGLLPKLAPRTDY [Peptide 12]
2	4		8 to 16	4	8	8 to 16	16	≥64	≥64	32		8	GLRKRLRKFRNKSKEKLKKIGQKIQGLLPKLAPRTDY [Peptide 8]
	4		4		8	8 to 16	8 to 16	8 to 16	2	4			GLRKRLRKFRNKMKEKLKKIGQKIQGLLPKLAPRTDY [Peptide 6]
4	16 to 32		≥64	4	16	8	≥64	≥64	≥64	16 to 32			GLRKRLRKFRNKIKEKKKKIGQKIQGLLPKLAPRTDY [Peptide 17]
4	2 to 4	8	8 to 16	8	4	8 to 16	4	≥64	≥64	32			GLRKRLRKFRNKHKEKLKKIGQKIQGLLPKLAPRTDY [Peptide 5]
4	16 to 32	4	16 to 32	8	16	32	16	16	≥64	16			GLRKRLRKFRNKIKEFLKKIGQKIQGLLPKLAPRTDY [Peptide 11]
4	4 to 8	4	16	4	8 to 16	16	16	64	≥64	16			GLRKRLRKFRNKIKEKLKKIGQKCQGLLPKLAPRTDY [Peptide 25]
